# From patent publication US20220217972A1, “Methods for cryopreservation of sub-millimeter and millimeter scale biological materials” (Regents of the University of Minnesota, priority 2021, published 2022)
# Key:
# [1] = test system: Drosophila melanogaster embryos; conditions: permeable CPAs compared under the same weight concentration; strain M2
# Experimental: (§1) CPA loading and dehydration. Right after permeabilization, a brush was used to break up clumps into individual embryos floating as a monolayer with minimal overlap (FIG. 2B). […] The embryos should remain floating in order to maintain access to oxygen. After 3 min, “wrinkles” on the embryo surface were observed under a dissecting microscope, indicating volumetric shrinkage (i.e., losing water) in response to higher external osmolarity (FIG. 2C). The percentage of embryos that shrunk was recorded. The 13 weight percent EG petri dish was then placed in a humid chamber. At 25 min, embryos were inspected under a dissecting microscope to confirm that they swelled back to their original shape, indicating EG had entered the embryos. The percentage of embryos that swelled back was recorded.
# Next, the mesh basket was blotted and placed in 39 weight percent EG+9 weight percent sorbitol solution prepared in cryobuffer on ice (i.e., ˜4° C.) for 9 min This step dehydrates the embryos (i.e., water loss) thereby elevating the intra-embryonic EG concentration to favor vitrification and avoidance of devitrification during the rewarming processes. In general, 5-6 ml dehydration CPA was used in a 35 mm petri dish.
# At this point, intra-embryonic CPA concentration was elevated through dehydration by placing the embryos in a high concentration CPA (i.e., ˜39 weight percent) at 4° C. […]
# [2] = test system: Drosophila melanogaster embryos; test: Post cryopreservation survival (hatch rate and adult rate) of embryos; assay type: in vivo; conditions: strain M2; for post cryopreservation survival: replacing sorbitol as sugar in dehydration CPA
# Experimental: Step 1. Embryo collection and staging. On day 1, 700-1200 flies at the age of 1-4 days old were used to collect embryos at room temperature. Usually 4 bottles of flies were used, 8 or more bottles were used if needed. Flies were placed in an empty Drosophila bottle covered with a mesh cloth as a cap (FIG. 2A). Embryos were collected in a 1 hour period on a grape juice plate smeared with yeast paste. The first hour collection served as an egg clean-up procedure for the female flies and were abandoned. Disturbance of flies was minimized during embryo collection. Grape juice plates with collected embryos were labeled with the end time point of collection, for instance, 3 pm was used to label the collection from 2 pm to 3 pm. Embryos were placed in a temperature incubator at 20.1±0.05° C. (Heratherm purchased from Thermo Scientific) until reaching the desired stage for cryopreservation. 20° C. was selected so that optimal embryo age for cryopreservation will be achieved during a normal work hour on the following day. In this work, embryo collection occurred in the afternoon and usually 2-4 collections were performed.
# Step 2. Dechorionation and permeabilization. On day 2, embryos were washed off from the grape juice plate into a nylon mesh basket and dechorionated in 50% bleach for 2-4 minutes. After rinsing with running tap water for 1-2 minutes to remove excess bleach, embryos along with the mesh basket were briefly blotted on paper towel and placed in the cryobuffer (20 mM NaCl, 2.7 mM KCl, 10 mM Na2HPO4, 1.8 mM KH2PO4, 4 mM MgCl2, 13 mM MgSO4, 60 mM Glycine, 60 mM Glutamic acid and 5 mM Malic acid, pH6.8, sterilized by filtration) in a 35 mm petri dish. Embryos were examined under a dissecting microscope to confirm the removal of chorions. In addition, the gut morphology was evaluated to verify the embryo stage (FIG. 2B).
# Before permeabilization, ˜4 ml isopropanol, mixture of D-limonene and heptane (4:1 v/v), and heptane alone were added to three separate 35 mm glass petri dishes in a fume hood. […]
# Step 3. […] The percentage of embryos that shrunk was recorded. […]
# [3] = test system: Drosophila melanogaster embryos; conditions: 13 weight percent EG in cryobuffer; shrink at 3 min, swelled back at 25 min; correct stage, properly permeabilized
# Experimental: as §1
structure (smiles),measurement,setting,value
"C[S+](C)[O-] [DMSO, dimethyl sulfoxide]",CPA toxicity (post dehydration survival),[1],highest CPA toxicity
"OCCO [EG, ethylene glycol]",CPA toxicity (post dehydration survival),[1],least CPA toxicity
same,survival post cryopreservation,[2]; permeable CPAs compared under the same weight concentration,highest survival post cryopreservation
same,embryos that shrink and swell,[3],> 90%
OC[C@H]1O[C@@](CO)(O[C@H]2O[C@H](CO)[C@@H](O)[C@H](O)[C@H]2O)[C@@H](O)[C@@H]1O [sucrose],post cryopreservation survival,[2],did not affect post cryopreservation survival
OC[C@H]1O[C@H](O[C@H]2O[C@H](CO)[C@@H](O)[C@H](O)[C@H]2O)[C@H](O)[C@@H](O)[C@@H]1O [trehalose],post cryopreservation survival,[2],did not affect post cryopreservation survival
